Laboratory results published in patent US8030487B2, “2-amino—5-substituted pyrimidine inhibitors” (TargeGen, Inc., priority 2006, dated 2011).
pIC50: −log10 of the molar value.

The molecules below were run against T1, VEGFR2 (Homo sapiens, UniProt P35968) (assay: VEGFR2 kinase inhibition (residual ATP luminescence)). Settings: 1.5 uM ATP, 60 min 37° C.
T1 construct: purchased Cell Signaling/ProQinase
Assay type: biochemical
Procedure: (§1) The ability of compounds of the present invention to inhibit the activity of various groups of kinases was tested. Kinases that were tested are described below. All kinase reactions were conducted in 96-well plates with a final reaction volume of 50 μl.
EGFR and VEGFR2 kinase assays were similarly performed. EGFR (76 ng/well, Panvera/Invitrogen) was combined with 12.5 mg/ml poly(glu4tyr) (Sigma) and 2.5 uM ATP. VEGFR2 (14.1 U/well, Cell Signaling/ProQinase) was used with 0.3 mg/ml poly(glu4tyr) and 1.5 uM ATP. Both were incubated for 60 minutes at 37° C., and the residual ATP was measured via luminescence, per the procedure described above.

T1 sequence (P35968 20-1356, species assumed): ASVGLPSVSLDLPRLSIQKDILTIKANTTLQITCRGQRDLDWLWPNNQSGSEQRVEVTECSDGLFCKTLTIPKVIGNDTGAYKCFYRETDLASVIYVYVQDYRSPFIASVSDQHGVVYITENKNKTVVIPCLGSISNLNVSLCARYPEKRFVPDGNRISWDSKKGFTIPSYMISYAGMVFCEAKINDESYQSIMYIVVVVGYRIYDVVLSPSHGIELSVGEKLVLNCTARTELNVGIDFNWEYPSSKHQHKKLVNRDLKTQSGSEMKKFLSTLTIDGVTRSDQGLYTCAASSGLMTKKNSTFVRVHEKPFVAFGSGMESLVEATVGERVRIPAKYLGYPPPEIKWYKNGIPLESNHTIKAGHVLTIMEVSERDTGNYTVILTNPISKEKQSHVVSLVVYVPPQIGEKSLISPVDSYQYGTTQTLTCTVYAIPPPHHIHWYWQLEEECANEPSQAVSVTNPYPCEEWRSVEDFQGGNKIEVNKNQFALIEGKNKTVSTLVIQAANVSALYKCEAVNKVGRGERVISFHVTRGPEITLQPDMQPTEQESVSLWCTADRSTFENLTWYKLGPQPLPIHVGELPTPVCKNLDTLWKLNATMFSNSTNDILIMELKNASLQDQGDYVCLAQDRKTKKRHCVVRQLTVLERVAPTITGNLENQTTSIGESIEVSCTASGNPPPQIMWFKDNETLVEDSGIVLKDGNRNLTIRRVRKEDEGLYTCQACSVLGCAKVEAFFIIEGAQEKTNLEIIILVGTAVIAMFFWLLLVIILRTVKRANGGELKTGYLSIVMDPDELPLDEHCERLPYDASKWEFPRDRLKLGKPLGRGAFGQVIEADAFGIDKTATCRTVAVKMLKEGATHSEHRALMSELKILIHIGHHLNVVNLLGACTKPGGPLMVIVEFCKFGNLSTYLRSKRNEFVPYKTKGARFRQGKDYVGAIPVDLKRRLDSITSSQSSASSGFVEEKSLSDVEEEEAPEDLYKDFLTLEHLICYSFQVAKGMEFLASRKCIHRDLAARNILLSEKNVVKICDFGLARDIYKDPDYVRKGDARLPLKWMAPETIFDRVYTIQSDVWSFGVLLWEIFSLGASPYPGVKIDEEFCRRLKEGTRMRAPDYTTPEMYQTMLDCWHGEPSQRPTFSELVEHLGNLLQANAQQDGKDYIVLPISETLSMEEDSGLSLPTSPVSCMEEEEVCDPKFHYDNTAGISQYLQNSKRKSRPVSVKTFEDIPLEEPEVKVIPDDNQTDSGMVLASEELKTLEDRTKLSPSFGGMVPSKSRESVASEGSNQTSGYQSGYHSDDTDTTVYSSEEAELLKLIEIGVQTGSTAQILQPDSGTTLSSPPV

| Structure (SMILES) | pIC50 |
| --- | --- |
| Cc1ccc(NC(=O)c2cccc(C(F)(F)F)c2)cc1C(=O)Nc1cnc(Nc2ccc(S(=O)(=O)CCCN3CCCC3)cc2)nc1 | 7.85 |
| Cc1ccc(NC(=O)c2cccc(C(F)(F)F)c2)cc1C(=O)Nc1cnc(Nc2ccc(C(=O)NCCN3CCCC3)nc2)nc1 | 7.68 |
| O=C(NCCN1CCCC1)c1ccc(Nc2ncc(NC(=O)c3cc(NC(=O)c4cccc(C(F)(F)F)c4)ccc3Cl)cn2)cc1 | 8.66 |
| CN1CCN(C(=O)c2ccc(Nc3ncc(NC(=O)c4cc(NC(=O)c5cccc(C(F)(F)F)c5)ccc4Cl)cn3)cc2)CC1 | 8.64 |
| O=C(Nc1ccc(Cl)c(C(=O)Nc2cnc(Nc3ccc(OCCN4CCCC4)cc3)nc2)c1)c1cccc(F)c1 | 7.39 |
| Cc1ccc(NC(=O)Nc2ccccc2)cc1C(=O)Nc1cnc(Nc2ccc(OCCN3CCCC3)cc2)nc1 | 6.77 |
| O=C(Nc1ccc(Cl)c(C(=O)Nc2cnc(Nc3cccc(S(=O)(=O)NCCN4CCCC4)c3)nc2)c1)c1cccc(C(F)(F)F)c1 | 8.68 |
| O=C(Nc1ccc(Cl)c(C(=O)Nc2cnc(Nc3ccc(OCCN4CCCC4)cc3)nc2)c1)c1ccc(C(F)(F)F)cc1 | 7.92 |
| O=C(Nc1cccc(C(F)(F)F)c1)Nc1ccc(Cl)c(C(=O)Nc2cnc(Nc3cccnc3)nc2)c1 | 7.70 |
| O=C(Nc1ccc(Cl)c(NC(=O)c2cnc(Nc3ccc(OCCN4CCCC4)cc3)nc2)c1)c1cccc(C(F)(F)F)c1 | 7.37 |
| O=C(Nc1ccc(Cl)c(C(=O)Nc2cnc(Nc3ccc(O)cc3)nc2)c1)c1cccc(C(F)(F)F)c1 | 7.82 |
| Cc1cccc(NC(=O)c2cccc(C(=O)Nc3cnc(Nc4ccc(S(=O)(=O)CCCN5CCCC5)cc4)nc3)c2)c1 | 6.79 |
| O=C(Nc1ccc(Cl)c(C(=O)Nc2cnc(Nc3ccc(S(=O)(=O)CCCN4CCCC4)cc3)nc2)c1)c1cccc(C(F)(F)F)c1 [drawing 161] | 8.54 |
| O=C(Nc1ccc(Cl)c(C(=O)Nc2cnc(Nc3cccc(OCCN4CCCC4)c3)nc2)c1)c1cccc(C(F)(F)F)c1 [drawing 162] | 8.57 |
| Cc1ccc(NC(=O)c2cccc(C(F)(F)F)c2)cc1C(=O)Nc1cnc(Nc2cccc(OCCN3CCCC3)c2)nc1 [drawing 163] | 7.86 |
| O=C(Nc1ccc(Cl)c(C(=O)Nc2cnc(Nc3ccc(S(=O)(=O)C4CCNCC4)cc3)nc2)c1)c1cccc(C(F)(F)F)c1 [drawing 169] | 8.35 |
| O=C(Nc1ccc(Cl)c(C(=O)Nc2cnc(Nc3ccccc3)nc2)c1)c1cccc(C(F)(F)F)c1 [drawing 181] | 8.02 |
| Cc1ccc(Nc2nccc3ccccc23)cc1C(=O)Nc1cnc(Nc2cccc(OCCN3CCCC3)c2)nc1 [drawing 186] | 5.48 |

Next, values leading:

| pIC50 | Structure (SMILES) |
| --- | --- |
| 8.51 | O=C(Nc1ccc(Cl)c(C(=O)Nc2cnc(Nc3ccc(C(=O)N4CCN(CCO)CC4)nc3)nc2)c1)c1cccc(C(F)(F)F)c1 |
| 7.14 | Cc1ccc(NC(=O)Nc2cccc(C(F)(F)F)c2)cc1C(=O)Nc1cnc(Nc2cccc(OCCN3CCCC3)c2)nc1 |
| 7.65 | O=C(Nc1ccc(Cl)c(C(=O)Nc2cnc(Nc3ccc(S(=O)(=O)C4CCNCC4)cc3)nc2)c1)c1cc(C(F)(F)F)ccc1F |
| 7.94 | O=C(Nc1ccc(Cl)c(C(=O)Nc2cnc(Nc3ccc(S(=O)(=O)C4CCNCC4)cc3)nc2)c1)c1cccc(Cl)c1 |
| 7.56 | Cc1ccc(NC(=O)Nc2cccc(C(F)(F)F)c2)cc1C(=O)Nc1cnc(Nc2cccnc2)nc1 |
| 8.68 | O=C(Nc1ccc(Cl)c(CNc2cnc(Nc3cccnc3)nc2)c1)c1cccc(C(F)(F)F)c1 |
| 6.83 | O=C(Nc1ccc(Cl)c(NC(=O)c2cnc(Nc3cccc(OCCN4CCCC4)c3)nc2)c1)c1cccc(C(F)(F)F)c1 |
| 6.75 | O=C(Nc1ccc(Cl)c(NC(=O)c2cnc(Nc3cccnc3)nc2)c1)c1cccc(C(F)(F)F)c1 |
| 7.64 | COc1ccc(Nc2ncc(NC(=O)c3cc(NC(=O)c4cccc(C(F)(F)F)c4)ccc3Cl)cn2)cc1 |
| 6.44 | O=C(Nc1ccc(Cl)c(C(=O)Nc2cnc(Nc3ccc(OC(=O)c4ccccc4)cc3)nc2)c1)c1cccc(C(F)(F)F)c1 |
| 8.49 | Cc1ccc(NC(=O)c2cccc(C(F)(F)F)c2)cc1C(=O)Nc1cnc(Nc2ccc(OCCN3CCCC3)cc2)nc1 [drawing 170] |
| 9.10 | O=C(Nc1ccc(Cl)c(C(=O)Nc2cnc(Nc3ccc(OCCN4CCCC4)cc3)nc2)c1)c1cccc(C(F)(F)F)c1 [drawing 171] |

What follows are molecules tested against T2, human c-Src (Homo sapiens, UniProt P12931) (assay: Src kinase inhibition (KinaseGlo residual ATP)). Settings: ATP 3 μM, 90 min room temperature.
T2 construct: purchased Panvera/Invitrogen
T2 sequence (P12931 whole entry): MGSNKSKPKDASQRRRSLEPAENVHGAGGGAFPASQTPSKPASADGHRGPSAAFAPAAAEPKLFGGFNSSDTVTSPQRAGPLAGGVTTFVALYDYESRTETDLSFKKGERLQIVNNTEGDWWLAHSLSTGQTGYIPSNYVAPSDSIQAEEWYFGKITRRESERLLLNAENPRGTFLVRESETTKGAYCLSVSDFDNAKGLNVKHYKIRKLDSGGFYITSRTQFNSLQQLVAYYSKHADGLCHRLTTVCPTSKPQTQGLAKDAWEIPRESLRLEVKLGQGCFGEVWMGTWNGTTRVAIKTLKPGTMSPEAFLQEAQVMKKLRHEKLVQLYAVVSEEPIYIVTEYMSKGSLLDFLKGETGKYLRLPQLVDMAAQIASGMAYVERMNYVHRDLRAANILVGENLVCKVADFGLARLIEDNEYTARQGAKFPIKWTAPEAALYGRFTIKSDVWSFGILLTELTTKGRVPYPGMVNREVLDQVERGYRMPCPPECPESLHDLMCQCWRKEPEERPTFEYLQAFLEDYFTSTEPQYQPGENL
Assay type: biochemical
Procedure: as §1
Recombinant human c-Src or Yes, or Fyn, or Lck (28 ng/well, Panvera/Invitrogen, Madison Wis.), ATP (3 μM), a tyrosine kinase substrate (PTK2, 250 μM, Promega Corp., Madison Wis.), and test agents (at concentrations ranging from about 1 nM/l to about 100 μM/l), in the presence of Src kinase reaction buffer (Upstate USA, Lake Placid N.Y.). After reacting for about 90 minutes at room temperature, residual ATP was determined using a luciferase-based assay (KinaseGlo, Promega Corp.) as a measure of kinase activity. Data from four wells were then averaged and used to determine IC50 values for the test compounds (Prism software package, GraphPad Software, San Diego Calif.).

| Structure (SMILES) | pIC50 |
| --- | --- |
| Cc1ccc(NC(=O)c2cccc(C(F)(F)F)c2)cc1C(=O)Nc1cnc(Nc2ccc(S(=O)(=O)CCCN3CCCC3)cc2)nc1 | 8.42 |
| Cc1ccc(NC(=O)c2cccc(C(F)(F)F)c2)cc1C(=O)Nc1cnc(Nc2ccc(C(=O)NCCN3CCCC3)nc2)nc1 | 8.39 |
| O=C(NCCN1CCCC1)c1ccc(Nc2ncc(NC(=O)c3cc(NC(=O)c4cccc(C(F)(F)F)c4)ccc3Cl)cn2)cc1 | 8.85 |
| CN1CCN(C(=O)c2ccc(Nc3ncc(NC(=O)c4cc(NC(=O)c5cccc(C(F)(F)F)c5)ccc4Cl)cn3)cc2)CC1 | 8.77 |
| O=C(Nc1ccc(Cl)c(C(=O)Nc2cnc(Nc3ccc(OCCN4CCCC4)cc3)nc2)c1)c1cccc(F)c1 | 8.52 |
| Cc1ccc(NC(=O)Nc2ccccc2)cc1C(=O)Nc1cnc(Nc2ccc(OCCN3CCCC3)cc2)nc1 | 8.35 |
| O=C(Nc1ccc(Cl)c(C(=O)Nc2cnc(Nc3cccc(S(=O)(=O)NCCN4CCCC4)c3)nc2)c1)c1cccc(C(F)(F)F)c1 | 8.40 |
| O=C(Nc1ccc(Cl)c(C(=O)Nc2cnc(Nc3ccc(OCCN4CCCC4)cc3)nc2)c1)c1ccc(C(F)(F)F)cc1 | 8.48 |
| O=C(Nc1cccc(C(F)(F)F)c1)Nc1ccc(Cl)c(C(=O)Nc2cnc(Nc3cccnc3)nc2)c1 | 7.85 |
| O=C(Nc1ccc(Cl)c(NC(=O)c2cnc(Nc3ccc(OCCN4CCCC4)cc3)nc2)c1)c1cccc(C(F)(F)F)c1 | 7.30 |
| O=C(Nc1ccc(Cl)c(C(=O)Nc2cnc(Nc3ccc(O)cc3)nc2)c1)c1cccc(C(F)(F)F)c1 | 7.72 |
| O=C(Nc1ccc(Cl)c(C(=O)Nc2cnc(Nc3cccc(OCCN4CCCC4)c3)nc2)c1)c1cccc(C(F)(F)F)c1 [drawing 162] | 8.68 |
| Cc1ccc(NC(=O)c2cccc(C(F)(F)F)c2)cc1C(=O)Nc1cnc(Nc2cccc(OCCN3CCCC3)c2)nc1 [drawing 163] | 8.41 |
| O=C(Nc1ccc(Cl)c(C(=O)Nc2cnc(Nc3ccc(S(=O)(=O)C4CCNCC4)cc3)nc2)c1)c1cccc(C(F)(F)F)c1 [drawing 169] | 8.74 |
| O=C(Nc1ccc(Cl)c(C(=O)Nc2cnc(Nc3ccccc3)nc2)c1)c1cccc(C(F)(F)F)c1 [drawing 181] | 8.35 |
| Cc1ccc(Nc2nccc3ccccc23)cc1C(=O)Nc1cnc(Nc2cccc(OCCN3CCCC3)c2)nc1 [drawing 186] | 7.63 |

Second part, the molecule after the results:

| pIC50 | Structure (SMILES) |
| --- | --- |
| 8.72 | O=C(Nc1ccc(Cl)c(C(=O)Nc2cnc(Nc3ccc(C(=O)N4CCN(CCO)CC4)nc3)nc2)c1)c1cccc(C(F)(F)F)c1 |
| 8.74 | Cc1ccc(NC(=O)Nc2cccc(C(F)(F)F)c2)cc1C(=O)Nc1cnc(Nc2cccc(OCCN3CCCC3)c2)nc1 |
| 8.38 | O=C(Nc1ccc(Cl)c(C(=O)Nc2cnc(Nc3ccc(S(=O)(=O)C4CCNCC4)cc3)nc2)c1)c1cc(C(F)(F)F)ccc1F |
| 8.60 | O=C(Nc1ccc(Cl)c(C(=O)Nc2cnc(Nc3ccc(S(=O)(=O)C4CCNCC4)cc3)nc2)c1)c1cccc(Cl)c1 |
| 8.10 | Cc1ccc(NC(=O)Nc2cccc(C(F)(F)F)c2)cc1C(=O)Nc1cnc(Nc2cccnc2)nc1 |
| 7.99 | O=C(Nc1ccc(Cl)c(CNc2cnc(Nc3cccnc3)nc2)c1)c1cccc(C(F)(F)F)c1 |
| 7.17 | O=C(Nc1ccc(Cl)c(NC(=O)c2cnc(Nc3cccc(OCCN4CCCC4)c3)nc2)c1)c1cccc(C(F)(F)F)c1 |
| 7.07 | O=C(Nc1ccc(Cl)c(NC(=O)c2cnc(Nc3cccnc3)nc2)c1)c1cccc(C(F)(F)F)c1 |
| 7.92 | COc1ccc(Nc2ncc(NC(=O)c3cc(NC(=O)c4cccc(C(F)(F)F)c4)ccc3Cl)cn2)cc1 |
| 6.19 | O=C(Nc1ccc(Cl)c(C(=O)Nc2cnc(Nc3ccc(OC(=O)c4ccccc4)cc3)nc2)c1)c1cccc(C(F)(F)F)c1 |
| 8.48 | Cc1ccc(NC(=O)c2cccc(C(F)(F)F)c2)cc1C(=O)Nc1cnc(Nc2ccc(OCCN3CCCC3)cc2)nc1 [drawing 170] |
| 8.92 | O=C(Nc1ccc(Cl)c(C(=O)Nc2cnc(Nc3ccc(OCCN4CCCC4)cc3)nc2)c1)c1cccc(C(F)(F)F)c1 [drawing 171] |
